Measurements from patent US20130236619A1, “ANTI-MICROBIAL FOOD PROCESSING COMPOSITIONS INCLUDING CERAGENIN COMPOUNDS AND METHODS OF USE” (Brigham Young University, priority 2012, published 2013).

Experiments:
spoilage microorganisms = test: Example 1: shelf-life of poultry carcasses dipped in wash composition; settings: wash composition including 100 ppm peracetic acid
Protocol: A study was performed to determine the effectiveness of an anti-microbial rinse composition including relatively low concentrations of a ceragenin compound in controlling growth of bacteria and extending shelf-life of a poultry food product. Three different wash compositions were prepared. Aqueous wash composition 1 (the control) included no ceragenin compound or other anti-microbial agent. Aqueous wash composition 1 was simply tap water. […] The ceragenin compound employed was CSA-44. Poultry carcasses (chicken carcasses) were dipped (e.g., immersed) for 30 seconds into the given wash composition and mechanically agitated to mimic the action of a finishing chiller used in commercial processing. After the 30 second application time, the carcasses were immediately vacuum packaged and stored in a refrigerator at 4° C. Three carcasses from each treatment were tested every third day beginning at day 0 and ending at day 21 to monitor their associated levels of microorganisms.
Poultry is considered to be spoiled when it reaches a level of 10^6 Colony Forming Units (“CFUs”)/ml of spoilage microorganisms in the rinsate. The control, i.e., poultry carcasses treated with wash composition 1, reached this limit on day 12. […] By day 18, the poultry carcasses treated with wash composition 2 had exceeded this limit with a value of about 10^6.5 CFUs/ml. […]

Salmonella bacteria = test: Example 2: Salmonella inoculated poultry carcasses dipped in wash composition; settings: peracetic acid wash composition
Protocol: (§1) Example 2 was performed to determine the effectiveness of an anti-microbial wash composition including a ceragenin compound in controlling growth of Salmonella bacteria by fighting off a Salmonella inoculation. Example 3 was similarly performed to determine the effectiveness of the wash composition in controlling growth of Campylobacter bacteria by fighting off a Campylobacter inoculation. Examples 2 and 3 simulate the effectiveness of the present anti-microbial wash compositions to kill Salmonella and Campylobacter on a poultry carcass where the poultry carcass has become contaminated with Salmonella bacteria or Campylobacter bacteria.
(§2) A total of 15 poultry carcasses (chicken carcasses) were sampled for these tests. The 15 poultry carcasses were divided into five groups of three each. Three carcasses were left untreated to serve as a negative control in order to observe natural levels of bacteria present on the carcass. The remaining 12 carcasses were then inoculated with 1 mL of Salmonella and 1 mL of Campylobacter. The carcasses were allowed to dry for 20 minutes in order for the bacteria to adhere to the surface of the poultry carcasses. One group of three of the inoculated poultry carcasses, designated the positive control, were then rinsed with a wash composition including no anti-microbial agent to determine the level of bacteria after inoculation. […]

Campylobacter bacteria = test: Example 3: Campylobacter inoculated poultry carcasses dipped in wash composition; settings: peracetic acid wash composition
Protocol: as §1, §2

CC(=O)OO [peracetic acid]
extension of shelf-life relative to a control wash composition (spoilage microorganisms): no extension of shelf-life | reduction of the presence of Salmonella bacteria (Salmonella bacteria): effective in reducing | reduction of the presence of Campylobacter bacteria (Campylobacter bacteria): effective in reducing
